What all share (format): cell-based, human
The test system of assay [1] is PGC-1α/ERRα. Briefly: PGC/ERR luciferase reporter gene assay, agonist mode. The note with it: for EC50 / AC50: Homo sapiens; for EC50: read-out: PGC-1α/ERRα (Agonist) EC50; for AC50: read-out: AC50 PGC-ERR ↑. On the technique in general: A reporter such as luciferase makes a cellular process visible.
Assay [2] addresses ERRα. Briefly: ERR luciferase reporter gene assay, agonist mode. The note with it: for EC50: read-out: ERRα (Agonist) EC50; for AC50: read-out: AC50 ERR ↑.
The subject of assay [3] is PGC-1α/ERRα. The experiment in a line: PGC/ERR luciferase reporter gene assay, antagonist mode. The note with it: for IC50: read-out: PGC-1α/ERRα (Antagonist) IC50; for AC50: read-out: AC50 PGC/ERR ↓.
Assay [4] concerns ERRα. The experiment in a line: ERR luciferase reporter gene assay, antagonist mode. The note with it: for IC50: read-out: ERRα (Antagonist) IC50; for AC50: read-out: AC50 ERR↓.
[5] abbreviates: LOPAC qHTS, dash = inconclusive or no activity.
[6] abbreviates: antagonist mode, 0 = inactive or inconclusive.
The mark [7] stands for this setting: agonist mode, 0 = inactive or inconclusive.

The record followed here is article PMC5486949 (SLAS discovery, 2017).

The structures appear in SMILES notation. Where a name gives a salt, the structure may show the parent alone. Read-outs that look alike come from different tables or passages of the source.

As for `Nc1nc(Nc2ccccc2)nc2c1ncn2[C@@H]1O[C@H](CO)[C@@H](O)[C@H]1O` [2-Phenylaminoadenosine], in the assay with PGC-1α/ERRα [1], the EC50 came out at 1.68 µM.

`Fc1cccc(C=NN=Cc2cccc(F)c2)c1` [3,3 ′-Difluorobenzaldazine]: the EC50 at ERRα [2] (setting [5]) came out at 13.3 µM.

For `Nc1nccc2c1ncn2[C@@H]1O[C@H](CO)[C@@H](O)[C@H]1O` [3-Deazaadenosine], the IC50 in the assay with PGC-1α/ERRα [3] (Homo sapiens) amounted to 16.8 µM.

For `Brc1c(Br)c(Br)c2[nH]cnc2c1Br` [4,5,6,7-Tetrabromobenz-imidazole], the IC50 with ERRα [4] (Homo sapiens) is 16.8 µM.

Take `Brc1c(Br)c(Br)c2[nH]nnc2c1Br` [4,5,6,7-Tetrabromobenzo-triazole]: in the assay on ERRα [4] (Homo sapiens), the AC50 is 20.9 µM and the IC50 stood at 18.8 µM. Also, in the assay on PGC-1α/ERRα [3] (Homo sapiens), the AC50 was 20.9 µM and the IC50 was found to be 21.1 µM.

Consider `Nc1ccc(N=Nc2ccccc2)cc1` [4-Aminoazobenzene], for which the EC50 with ERRα [2] (Homo sapiens) was found to be 10.9 µM.

As to `Cc1cccc(C#Cc2ccccc2)n1` [6-Methyl-2-(phenylethynyl)pyridine HCl], the EC50 in the assay on ERRα [2] (Homo sapiens) was determined as 13.3 µM.

On to `CC1=C(C)C(=O)C(CCCCC#CCCCC#CCO)=C(C)C1=O` [AA-861], for which the IC50 in the assay with ERRα [4] (Homo sapiens) came out at 12.6 µM.

As for `O=C1NC(=O)/C(=C/c2ccc3c(c2)OC(F)(F)O3)S1` [AS 604850], at ERRα [2] (setting [5]), the EC50 was found to be 3.16 µM.

With `CCCCC[C@H](CC(=O)NO)C(=O)N[C@H](C(=O)N1CCC[C@H]1CO)C(C)C` [Actinonin], in the assay with PGC-1α/ERRα [3] (Homo sapiens), the IC50 was 8.91 µM.

As for `Nc1nc(N)c2nc(CNc3ccc(C(=O)N[C@@H](CCC(=O)O)C(=O)O)cc3)cnc2n1` [Aminopterin], in the assay with ERRα [4] (Homo sapiens), the AC50 was 0.0468 µM and the IC50 worked out at 0.05 µM. In the assay with PGC-1α/ERRα [3] (Homo sapiens), the AC50 was 0.0589 µM and the IC50 was determined as 0.06 µM.

As for `CO[C@H]1O[C@@H]2O[C@@]3(C)CC[C@H]4[C@H](C)CC[C@@H]([C@H]1C)[C@@]24OO3` [Artemether], in the assay with ERRα [4] (Homo sapiens), the AC50 is 0.525 µM and the IC50 was 0.53 µM. Moreover, in the assay on PGC-1α/ERRα [3] (Homo sapiens), the AC50 was 1.05 µM and the IC50 was 0.75 µM.

Take `COc1ccc(-c2cc3nccn3c(Nc3ncccc3C(N)=O)n2)cc1OC.Cl.O` [BAY 61-3606 hydrochloride hydrate]: the “AC50 ERR↓” value on ERRα [4] (setting [6]) is 5.53 log10(M)*–1. On PGC-1α/ERRα [3] (setting [6]), the “AC50 PGC/ERR ↓” value was 5.63 log10(M)*–1.

For `Nc1ccc(-c2ccc3ccccc3n2)cc1` [BF-170 hydrochloride], the “AC50 ERR ↑” value on ERRα [2] (setting [7]) is 5.58 log10(M)*–1. Moreover, at ERRα [2] (setting [5]), the EC50 is 2.66 µM. The “AC50 PGC-ERR ↑” value on PGC-1α/ERRα [1] (setting [7]) was 5.78 log10(M)*–1.

In the case of `Cc1ccc(S(=O)(=O)/C=C/C#N)cc1` [Bay 11-7082], the EC50 on ERRα [2] (setting [5]) was found to be 16.8 µM.

For the compound `C[C@H]1CCC/C=C/[C@@H]2C[C@H](O)C[C@H]2[C@H](O)/C=C/C(=O)O1` [Brefeldin A], in the assay with ERRα [4] (Homo sapiens), the IC50 turned out to be 1.5 µM.

For the compound `O=C(/C=C/c1ccc(O)c(O)c1)OCCc1ccccc1` [Caffeic acid phenethyl ester], the EC50 in the assay with PGC-1α/ERRα [1] was 11.9 µM.

For `O=c1c(-c2ccc(O)cc2)coc2cc(O)ccc12` [Daidzein], in the assay with ERRα [2] (Homo sapiens), the AC50 is 13.2 µM and the EC50 was found to be 13.3 µM. Moreover, the AC50 in the assay on PGC-1α/ERRα [1] was 20.9 µM.

Turning to `C#C[C@]1(O)CC[C@H]2[C@@H]3CCC4=Cc5oncc5C[C@]4(C)[C@H]3CC[C@@]21C` [Danazol], in the assay on ERRα [4] (Homo sapiens), the IC50 is 15 µM.

For the compound `OCCN(CCO)c1nc(N2CCCCC2)c2nc(N(CCO)CCO)nc(N3CCCCC3)c2n1` [Dipyridamole], the IC50 in the assay with ERRα [4] (Homo sapiens) was 11.9 µM.

As to `O=c1cc(-c2ccccc2)oc2ccccc12` [Flavone], in the assay with ERRα [2] (Homo sapiens), the EC50 came out at 9.69 µM.

For the compound `C=C[C@@]1(C)CC(=O)[C@]2(O)[C@@]3(C)[C@@H](O)CCC(C)(C)[C@@H]3[C@H](O)[C@H](OC(C)=O)[C@@]2(C)O1` [Forskolin], the EC50 in the assay on PGC-1α/ERRα [1] worked out at 1.33 µM.

On to `NNc1nncc2ccccc12` [Hydralazine hydrochloride], for which the EC50 in the assay on ERRα [2] (Homo sapiens) was 0.75 µM.

For `COc1ccc(/C=C2\COc3ccc(C)cc3C2=O)cc1O` [IMS2186], at ERRα [2] (setting [5]), the EC50 was 1.06 µM.

For the compound `O=C1Nc2ccccc2/C1=C1/Nc2ccccc2/C1=N\O` [Indirubin-3′-oxime], the EC50 on ERRα [2] (setting [5]) amounted to 2.66 µM.

`CC[N+](CC)(CC)CCOc1ccc(/C=C/c2ccccc2)cc1` [MG 624]: in the assay on ERRα [4] (Homo sapiens), the AC50 was 10.5 µM and the IC50 is 9.44 µM. Further, in the assay with PGC-1α/ERRα [3] (Homo sapiens), the AC50 is 11.7 µM and the IC50 was 12.6 µM.

With `CC[C@H](C)C(=O)O[C@H]1CCC=C2C=C[C@H](C)[C@H](CC[C@@H]3C[C@@H](O)CC(=O)O3)[C@H]21` [Mevastatin], the EC50 in the assay with ERRα [2] (Homo sapiens) is 2.98 µM.

Turning to `CC#C[C@]1(O)CC[C@H]2[C@@H]3CCC4=CC(=O)CCC4=C3[C@@H](c3ccc(N(C)C)cc3)C[C@@]21C` [Mifepristone], the IC50 in the assay on ERRα [4] (Homo sapiens) is 23.7 µM.

Consider `Nc1ccc(CCNc2ncnc3c2ncn3[C@@H]2O[C@H](CO)[C@@H](O)[C@H]2O)cc1` [N6-2-(4-Aminophenyl)ethyladenosine], for which the EC50 with PGC-1α/ERRα [1] was determined as 11.9 µM.

As for `OC[C@H]1O[C@@H](n2cnc3c(NC4CCCC4)ncnc32)[C@H](O)[C@@H]1O` [N6-Cyclopentyladenosine], the EC50 in the assay with PGC-1α/ERRα [1] was 2.98 µM.

As to `COC(=O)Nc1nc2ccc(C(=O)c3cccs3)cc2[nH]1` [Nocodazole], the EC50 with PGC-1α/ERRα [1] came out at 1.88 µM.

`COc1cccc(-c2cc(=O)c3ccccc3o2)c1N` [PD 98,059]: the EC50 at ERRα [2] (setting [5]) came to 2.11 µM.

For `Oc1cc(O)cc(/C=C/c2ccc(O)c(O)c2)c1` [Piceatannol], in the assay with ERRα [2] (Homo sapiens), the AC50 was 8.32 µM and the EC50 amounted to 8.41 µM. Besides, in the assay on PGC-1α/ERRα [1], the AC50 is 18.6 µM and the EC50 came to 18.8 µM.

In the case of `CC(=O)[C@H]1CC[C@H]2[C@@H]3CCC4=CC(=O)CC[C@]4(C)[C@H]3CC[C@]12C` [Progesterone], the IC50 with ERRα [4] (Homo sapiens) was 11.9 µM.

Regarding `Cc1cccc(-c2[nH]ncc2-c2ccc3ncccc3n2)n1` [RepSox], on ERRα [4], the “AC50 ERR↓” value is 5.88 log10(M)*–1 and the IC50 was found to be 1.33 µM. On PGC-1α/ERRα [3], the “AC50 PGC/ERR ↓” value was 5.93 log10(M)*–1 and the IC50 was determined as 1.19 µM.

In the case of `Oc1ccc(/C=C/c2cc(O)cc(O)c2)cc1` [Resveratrol], in the assay on ERRα [2] (Homo sapiens), the AC50 was 3.31 µM and the EC50 worked out at 3.35 µM. In addition, in the assay with PGC-1α/ERRα [1], the AC50 is 11.7 µM and the EC50 is 11.9 µM.

In the case of `Cc1nc2sccn2c(=O)c1CCN1CCC(=C(c2ccc(F)cc2)c2ccc(F)cc2)CC1` [Ritanserin], the IC50 in the assay on ERRα [4] (Homo sapiens) stood at 16.8 µM.

Regarding `Oc1ccc(-c2nc(-c3ccncc3)c(-c3ccc(F)cc3)[nH]2)cc1` [SB 202190], the IC50 with ERRα [4] (Homo sapiens) worked out at 10.6 µM.

As for `Cc1ccc(O)c(N=Nc2ccccc2)n1` [SIB 1757], the EC50 on ERRα [2] (setting [5]) was determined as 8.41 µM.

In the case of `Cc1cccc(/C=C/c2ccccc2)n1` [SIB 1893], the EC50 on ERRα [2] (setting [5]) worked out at 13.3 µM.

Consider `COc1ccc(CCCOC(Cn2ccnc2)c2ccc(OC)cc2)cc1` (centres unmarked) [SKF 96365], for which, in the assay on ERRα [4] (Homo sapiens), the IC50 came to 17.8 µM.

As for `C=CCNc1ncnc2ccc(Br)cc12` [SMER28], the “AC50 ERR↓” value on ERRα [4] (setting [6]) is listed as 5.03 log10(M)*–1. Further, the “AC50 PGC/ERR ↓” value at PGC-1α/ERRα [3] (setting [6]) is reported as 4.98 log10(M)*–1.

Consider `CN(C)c1ccc(C=C2C(=O)Nc3ccccc32)cc1` [SU 4312], for which the EC50 at ERRα [2] (setting [5]) worked out at 3.35 µM.

With `CN(C)S(=O)(=O)c1ccc2c(c1)/C(=C/c1cc3c([nH]1)CCCC3)C(=O)N2` [SU 6656], in the assay with PGC-1α/ERRα [1], the EC50 was 23.7 µM.

Turning to `COc1ccc(/C=C/C(=O)Nc2ccccc2C(=O)O)cc1OC` [Tranilast], the EC50 in the assay with ERRα [2] (Homo sapiens) came out at 1.68 µM.

Regarding `COc1cc2c(cc1OC)-c1c/c(=N\c3c(C)cc(C)cc3C)n(C)c(=O)n1CC2` [Trequinsin hydrochloride], in the assay on ERRα [4] (Homo sapiens), the IC50 turned out to be 16.8 µM.

On to `CC(C)(C)c1cc(/C=C(\C#N)C(N)=S)cc(C(C)(C)C)c1O` [Tyrphostin AG 879], for which the IC50 with ERRα [4] (Homo sapiens) came out at 2.37 µM.
